# Legend:
# MAP kinase [1] = assay: Screening method for pheromone compounds having MAP kinase modulating activity in Rat1 cells (Example 1); format: cell-based, rat; settings: observed on screening in accordance with the described methods
# Protocol: In a preferred screening method, as set forth in Example 1 herein, pheromone compounds with MAP kinase modulating activity are identified using Rat1 cells grown in cell culture dishes. Samples of the pheromone compound are added to respective cell culture dishes containing the Rat1 cells and incubated. A control group is established by treating a separate group of cell culture dishes containing Rat1 cells with the same solutions absent the pheromone compound. After incubation, the Rat1 cells are stimulated with epidermal growth factor to stimulate MAP kinase activation in the Rat1 cells. Upon completion of the incubation period, the Rat1 cells in each of the culture dishes are separately processed to obtain the corresponding cell extract containing proteins indicative of active kinase. The proteins are then separated using known electrophoresis techniques and prepared as a blot for the detection and measurement of active MAP kinase. The resulting blot is analyzed using densitometric techniques to measure the corresponding activity of the tested pheromone compound.
# Rat1 cells were grown in 6 cm cell culture dishes in a tissue culture incubator at 37° C. in an atmosphere containing 5% carbon dioxide. The cells were serum-starved for 16 hours. […] A control group was established by adding to the remaining cell culture dishes the same solution absent the pheromone compound. After the 15 minute period, the Rat1 cells were stimulated with epidermal growth factor (EGF) (50 ng/ml) for about 15 minutes for one group and 30 minutes for a second group.
# The Rat1 cells were then treated to remove the corresponding incubation medium and then the cells were rinsed twice each with 5 ml of cold phosphate buffered saline (PBS) and once with 5 ml of cold homogenizing buffer (Buffer H) containing 50 mM of β-glycerophosphate, (pH 7.3), 1.5 mM of ethylenebis(oxyethylenenitrilo)tetraacetic acid (EGTA), 1 mM of ethylenediaminetetraacetic acid (EDTA), 1 mM of dithiothreitol (DTT), 0.1 mM sodium orthovanadate, 1 mM benzamidine, 10 μg/ml of aprotinin, 10 μg/ml of leupeptin, and 2 μg/ml of pepstatin (2 μg/ml)+1% Triton-X-100.
# The cells were harvested and lysed with 350 μl of cold Buffer H. Alternatively, the cells may be harvested and lysed with radioimmunoprotein assay buffer (RIPA buffer). Each extract was then centrifuged at 15,000×g for 15 minutes at 4° C. The resulting supernatants contained the protein extracts to be examined and were transferred to fresh, pre-cooled test tubes and kept on ice.
# The proteins were then separated by sodium dodecyl sulfate-polyacrylamide gel electrophoresis (SDS-PAGE) and transferred, by western blotting, onto a nitrocellulose membrane.
# The blot produced above was blocked with 2% bovine serum albumin (BSA) in Tris-buffered saline/Tween-20 (TBST) for 1 hour. The blot was then incubated with a monoclonal anti-active MAP kinase antibody obtained from Sigma, and diluted according to the manufacturer recommendations. The blot was incubated overnight at 4° C. Alternatively, the blot may also be incubated for about 30 minutes at 37° C., or from one to two hours at room temperature.
# The treated blot was placed in a flat container and washed at least 3 times for 15 minutes each with TBST buffer at room temperature. The blot was then incubated with alkaline phosphatase-conjugated goat anti-mouse IgG obtained from Jackson Laboratories, diluted according to the manufacturer recommendations in TBST buffer for 45 minutes at room temperature. The blot was then subjected to a second washing, repeated 3 times, for 10 minutes each with TBST. An alkaline phosphatase (AP) detection technique was utilized to detect and measure the presence of active MAP kinase. Enhanced MAP kinase activity as compared to control is evidence that the compound is a MAP kinase activator. Lowered MAP kinase activity as compared to control is evidence that the compound is a MAP kinase inhibitor. […]
# MAP kinase [2] = assay: Inhibition of EGF-stimulated MAP kinase activity in Rat1 cells (Example 2, western blot with anti-active-MAPK antibodies, densitometry); format: cell-based, rat; settings: compound 10^-4 M preincubated about 30 min; for Inhibition of MAP Kinase activity (% of Control), 15 minute activation by EGF: EGF 25 ng/ml for 15 minutes
# Protocol: Rat1 cells grown in a series of cell culture dishes were prepared in the same manner described above in Example 1. The cells were serum-starved for 16 hours. Three groups of cell culture dishes containing Rat1 cells were each preincubated for about 30 minutes with solution containing the pheromone compound, trans-3, cis-7-tetradecadienyl-acetate at a concentration of 10^−4 M, with a solution containing the pheromone compound, trans-3, cis-8-tetradecadienyl-acetate at a concentration of 10^−4 M, or a control solution absent any pheromone compound. After preincubation, all of the Rat1 cells were stimulated with epidermal growth factor (EGF) (25 ng/ml) for about 15 minutes for one group and 30 minutes for a second group. The Rat1 cells were then washed with phosphate buffered saline (PBS) and lysed with RIPA buffer. The proteins were then separated by sodium dodecyl sulfate-polyacrylamide gel electrophoresis (SDS-PAGE) and probed with anti-active-MAPK antibodies. The inhibitory effect of the pheromone compound on MAPK activity was calculated as the percent EGF-induced activity as indicated by densitometry analysis as compared to the control receiving no pheromone compound.
SMILES,mitogen-activating protein kinase modulation activity (activator or inhibitor) (MAP kinase [1]),"Inhibition of MAP Kinase activity (% of Control), 15 minute activation by EGF (MAP kinase [2]) [%]","Inhibition of MAP Kinase activity (% of Control), 30 minute activation by EGF (MAP kinase [2]; EGF 25 ng/ml for 30 minutes) [%]"
"CCCCCC/C=C\CC/C=C/CCOC(C)=O [Trans-3,Cis-7-Tetradecadienyl-acetate]",inhibitors,75,85
"CCCCC/C=C\CCC/C=C/CCOC(C)=O [Trans-3,Cis-8-Tetradecadienyl-acetate]",inhibitors,50,–
